Where two headings read alike, the source gives them in different places.
Assays:
[1] = test system: 5-HT (Von Bezold-Jarisch reflex); test: Von Bezold-Jarisch reflex evoked by i.v. 5-HT in the anaesthetized rat, antagonism; assay type: in vivo, rat (male Sprague-Dawley); conditions: for minimal effective dose / ED50: iv; for minimal effective dose: read-out: threshold dose (just inhibits the response to 5-HT); for ED50: read-out: ED50 (inhibits the response to 5-HT by 50%); for potency relative to metoclopramide: Von Bezold-Jarisch reflex, comparative test
Text: The activity of these compounds against 5-HT can be assessed in vivo by measurement of the effect of the compound on the Von Bezold-Jarisch Reflex induced by 5-HT injected intravenously into the rat (A.S. Paintal, Physiol. Rev. 53, 159-227, 1973). The transient cardiac slowing arises from an increased […] vagus activity arising from stimulation by 5-HT of sensory afferent fibres in and around the heart (see Example 3).
Antagonism of the Von Bezold-Jarisch reflex evoked by 5-HT in the anaesthetized rat was measured for tropyl 3,5-dimethoxybenzoate (A), tropyl 3,5-dimethylbenzoate (B) and tropyl 3,5-dichlorobenzoate (C) using the following method.
Male Sprague-Dawley rats weighing 250-300 g are anaesthetized with urethane, 1.25 g/kg injected intraperitoneally and set up for recording blood pressure and heart rate as described in J. R. Fozard et al, J. Cardiovas. Pharmacol. 2, 229-245 (1980). A submaximal dose of 5-HT ([…]) is given repeatedly into the cannulated jugular vein and changes in heart rate are quantified. Antagonists are given intravenously and the doses required to just inhibit the response to 5-HT (threshold dose) or to inhibit the response to 5-HT by 50% (ED50) are determined.

acute migraine attack = conditions: slow intravenous injection, 10 mg; J. B. Hughes 1977; cited from earlier work
rat uterus, 5-HT = test: Selectivity: inhibition of response to 5-HT, rat uterus; assay type: biochemical; conditions: agonist 5-HT, read-out: concentration to inhibit standard response to stimulants by 50% (IC50)
Text: (§1) A selection of classical in vitro pharmacological test preparations (rat uterus, rat fundus, guinea-pig ileum, guinea-pig taenia caeci) were set up according to well-established procedures (see "Pharmacological Experiments on Isolated Preparations" Staff of the Department of Pharmacology, University of Edinburgh, Livingstone, Edinburgh 1970). Various spasmogens were used to elicit contraction of these tissues though mechanisms other than the 5-HT "M" receptor. The concentrations of tropyl 3,5-dimethoxybenzoate (A), tropyl 3,5-dimethylbenzoate (B) and tropyl 3,5-dichlorobenzoate (C) which reduced the effects of a submaximal dose of agonist by 50% were determined (IC50). The results are set forth in Table VI below in which the compounds are identified by the reference letters used above.

rat fundus, 5-HT = test: Selectivity: inhibition of response to 5-HT, rat fundus; assay type: biochemical; conditions: agonist 5-HT, read-out: concentration to inhibit standard response to stimulants by 50% (IC50)
Text: as §1

rat uterus, oxytocin = test: Selectivity: inhibition of response to oxytocin, rat uterus; assay type: biochemical; conditions: agonist oxytocin, read-out: concentration to inhibit standard response to stimulants by 50% (IC50)
Text: as §1

[2] = test system: rat fundus, acetylcholine; test: Selectivity: inhibition of response to acetylcholine, rat fundus; assay type: biochemical; conditions: agonist acetylcholine, read-out: concentration to inhibit standard response to stimulants by 50% (IC50)
Text: as §1

[3] = test system: guinea-pig ileum, acetylcholine; test: Selectivity: inhibition of response to acetylcholine or carbachol, guinea-pig ileum; assay type: biochemical; conditions: read-out: concentration to inhibit standard response to stimulants by 50% (IC50)
Text: as §1
**Carbachol agonist instead of acetylcholine

[4] = test system: guinea-pig ileum, histamine; test: Selectivity: inhibition of response to histamine, guinea-pig ileum; assay type: biochemical; conditions: agonist histamine, read-out: concentration to inhibit standard response to stimulants by 50% (IC50)
Text: as §1

[5] = test system: guinea-pig taenia caeci, calcium; test: Selectivity: inhibition of response to calcium, guinea-pig taenia caeci; assay type: biochemical; conditions: agonist calcium, guinea-pig taenia caeci in potassium depolarized Tyrode solution; read-out: concentration to inhibit standard response to stimulants by 50% (IC50)
Text: as §1
*In potassiumdepolarized Tyrode solution

[6] = test system: patients with migraine or cluster headaches; test: Pilot study of tolerance and efficacy, intravenous, in patients with migraine or cluster headaches; assay type: in vivo, human (patients); conditions: for headache response: Patient No. 6
Protocol: This study was designed to evaluate tolerance and, if possible, efficacy of intravenous tropyl 3,5-dichlorobenzoate in patients with migraine or cluster headaches.
Eight patients (4 males), aged 27-47 with known headache disorders of 5-27 years duration (see Table VII) took part in the study but Patients Nos. 2 and 4 had cluster not migraine headaches and the cause of headaches in Patient No. 6 was unknown.
Tropyl 3,5-dichlorobenzoate was provided as a sterile solution, 1 mg/ml; the desired dose to be diluted in 10 ml normal saline for intravenous infusion over a 2 minute period. No other therapy was taken for at least 24 hours before treatment or during the course of therapy.
Doses as high as 14 mg/day and 9 mg single dose were administered without any signs of intolerance.

mouse and rat = test: Acute toxicity (LD50) in the mouse and rat, overall statement; assay type: in vivo
[7] = Patient 6, after 4 mg dose i.v.

Structure (SMILES) | ED50 ([1]; Rattus norvegicus) [µg/kg] | minimal effective dose ([1]; Rattus norvegicus) [µg/kg] | potency relative to metoclopramide [1] | IC50 (rat uterus, 5-HT) [µM] | IC50 (rat fundus, 5-HT) [µM] | IC50 (rat uterus, oxytocin) [µM] | IC50 [2] [µM] | IC50 ([3]; agonist acetylcholine) [µM] | IC50 [4] [µM] | IC50 [5] [µM] | toxicity as shown by LD50 values (mouse and rat) | further results
CCN(CC)CCNC(=O)c1cc(Cl)c(N)cc1OC [metoclopramide, reference compound] | – | – | – | – | – | – | – | – | – | – | – | minimal effective dose ([1]; antagonist i.v., anaesthetized rat): 233 ± 66.3 µg/kg; relief of acute migraine attack (acute migraine attack): immediate relief of acute migraine attack
CN1C2CCC1CC(OC(=O)c1cc(Cl)cc(Cl)c1)C2 (stereo not shown) [C, tropyl 3,5-dichlorobenzoate] | 22 ± 3.2 | 7.72 ± 0.63 | many times more potent than metoclopramide | 25.4 | > 50.9 | > 50.9 | 12.4 | 8.05 | 3.68 | 28.6 | relatively non-toxic | response ([6]; Patient 1, i.v. 1 mg, then 1 hour later, 2 mg): no effect on headache or nausea; response ([6]; Patient 2 (cluster), i.v. 1 mg): no effect; response ([6]; Patient 4 (cluster), i.v. 3 mg): no effect; effect of increased doses ([6]; Patient 6, 5 mg bid × 2 days, then 6 mg bid × 11 days i.v.): no greater effect; duration of reduction of pain intensity [6, 7]: 4 to 8 h; time to reduction of pain intensity [6, 7]: ≤ 30 min; reduction of pain intensity ([6]; Patient 6, within 30 minutes after 4 mg dose i.v.): 70-80%; response ([6]; Patient 7, i.v. 3 mg × 1 day, then 5 mg × 2 days, then 7 mg × 1 day): no effect; response during increasing doses ([6]; Patient 8, i.v. 6 mg × 1 day, 7 mg × 2 days, 9 mg × 1 day): maintained during increasing doses; reduction of pain ([6]; Patient 8, with 3 mg i.v.): about 30%; headache response ([6]; 3 mg single doses i.v.): slight reduction in their bilateral headache; headache response ([6]; 4 mg bid i.v.): further amelioration; time after stopping therapy to return of headaches to pretreatment intensity ([6]; Patient No. 8): 6 to 7 days; symptom response ([6]; Patient No. 8, first dose of 3 mg i.v.): decrease in all symptoms; repeated dose well tolerated (highest) ([6]; i.v. b.i.d., patients with headaches): up to 7 mg; cumulative dose well tolerated (highest) ([6]; i.v., over 18 days): 177 mg; dose per day administered without any signs of intolerance (highest) ([6]; i.v., patients): 14 mg/day; patients with marked diminution of headache and associated symptoms ([6]; patients treated with repeated doses (Patients Nos. 6 and 8), i.v.): two of the three patients; pain intensity and associated symptoms ([6]; some patients treated with doses of 3 mg or greater, i.v.): ameliorated
COc1cc(OC)cc(C(=O)OC2CC3CCC(C2)N3C)c1 (stereo not shown) [A, tropyl 3,5-dimethoxybenzoate] | 13.7 ± 1.2 | 6.96 ± 0.9 | many times more potent than metoclopramide | > 52.5 | 40 | > 52.5 | 13.1 | 9.56 | 6.61 | 36.1 | relatively non-toxic | –
Cc1cc(C)cc(C(=O)OC2CC3CCC(C2)N3C)c1 (stereo not shown) [B, tropyl 3,5-dimethylbenzoate] | 6.07 ± 0.72 | 3.57 ± 0.33 | many times more potent than metoclopramide | – | – | – | – | – | – | 34.2 | relatively non-toxic | IC50 ([3]; carbachol agonist instead of acetylcholine): 9.59 µM

Source: patent US4563465A, “Treatment of migraine with substituted tropyl benzoate derivatives” (Merrell Dow Pharmaceuticals Inc., priority 1981, dated 1986)
